We go through 23 compounds from patent US6172085A (priority 1996, dated 2001).

pIC50: −log10 of the molar value. Where a name gives a salt, the structure may show the parent alone.

For this experiment, the system named is sodium channel. Type of experiment: binding, Wistar rats. To be noted: rat cerebral cortex membrane, 5 nM [^3 H]batracotoxinin A20-α-benzoate, 1 μM tetrodotoxin, 100 μg/mL scorpion toxin, 37° C., 1 hour.
As for `Cc1c(C)c2c(c(C)c1N)CC(C)(CN1CCN(Cc3ccc4c(c3)OCO4)CC1)O2` (centres unmarked) [Example 4, 2,3-Dihydro-2,4,6,7-tetramethyl-2-[[4-[(3,4-methylenedioxyphenyl)methyl]-1-piperazinyl]methyl]-5-benzofuranamine trihydrochloride], the pIC50 (usually the negative decadic logarithm of the IC50, by convention in mol/L) is 6.55.

Take `Cc1c(C)c2c(c(C)c1N)CC(C)(CN1CCN(CCc3ccccc3)CC1)O2` (centres unmarked) [Example 27, 2,3-Dihydro-2,4,6,7-tetramethyl-2-[[4-(2-phenylethyl)-1-piperazinyl]methyl]-5-benzofuranamine]: the pIC50 was 6.70.

Compound `COc1ccccc1CN1CCN(CC2(C)Cc3c(C)c(N)c(C)c(C)c3O2)CC1` (centres unmarked) [Example 31, 2,3-Dihydro-2-[[4-(2-methoxybenzyl)-1-piperazinyl]methyl]-2,4,6,7-tetramethyl-5-benzofuranamine trihydrochloride] gave a negative-log IC50 (pIC50) of 6.31.

Consider `Cc1c(C)c2c(c(C)c1N)CC(C)(CN1CCC(CCCCc3ccccc3)CC1)O2` (centres unmarked) [Example 3, 2,3-Dihydro-2,4,6,7-tetramethyl-2-[[4-(4-phenylbutyl)-1-piperidinyl]methyl]-5-benzofuranamine], for which the pIC50 was 6.59. Against the preceding compound, the pIC50 is 0.28 log units higher.

Take `COc1ccc(CN2CCN(CC3(C)Cc4c(C)c(N)c(C)c(C)c4O3)CC2)cc1OC` (centres unmarked) [Example 32, 2-[[4-(3,4-Dimethoxybenzyl)-1-piperazinyl]methyl]-2,3-dihydro-2,4,6,7-tetramethyl-5-benzofuranamine trihydrochloride]: the pIC50 is 6.60. The pIC50 values of the last two compounds are within 0.2 log units of each other.

In turn, `Cc1c(C)c2c(c(C)c1N)CC(C)(CN1CCC(COC(c3ccccc3)c3ccccc3)CC1)O2` (centres unmarked) [Example 24, 2-[[4-[(Diphenylmethoxy)methyl]-1-piperidinyl]methyl]-2,3-dihydro-2,4,6,7-tetramethyl-5-benzofuranamine oxalate] showed a pIC50 of 6.39.

Turning to `Cc1c(C)c2c(c(C)c1N)CC(C)(CN1CCc3ccccc3CC1)O2` (centres unmarked) [Reference Example 10, 2,3-Dihydro-2,4,6,7-tetramethyl-2-[(2,3,4,5-tetrahydro-1H-3-benzazepin-3-yl)methyl]-5-benzofuranamine dihydrochloride], the pIC50 is 6.33.

Compound `Cc1c(C)c2c(c(C)c1N)CC(C)(CN1CCC(CCCc3ccccc3)CC1)O2` (centres unmarked) [Example 2, 2,3-Dihydro-2,4,6,7-tetramethyl-2-[[4-(3-phenylpropyl)-1-piperidinyl]methyl]-5-benzofuranamine] showed a negative-log IC50 (pIC50) of 6.55.

The compound `Cc1c(C)c2c(c(C)c1N)CC(C)(CN1CCC(OC(c3ccccc3)c3ccccc3)CC1)O2` (centres unmarked) [Example 17, 2-[[4-(Diphenylmethoxy)-1-piperidinyl]methyl]-2,3-dihydro-2,4,6,7-tetramethyl-5-benzofuranamine oxalate] gave a pIC50 of 6.49.

In turn, `Cc1c(C)c2c(c(C)c1N)CC(C)(CN1CCC(CCc3ccccc3)CC1)O2` (centres unmarked) [Example 1, 2,3-Dihydro-2,4,6,7-tetramethyl-2-[[4-(2-phenylethyl)-1-piperidinyl]methyl]-5-benzofuranamine] showed a negative logarithm of the IC50 (pIC50) of 6.66.

The compound `Cc1c(C)c2c(c(C)c1N)CC(C)(CN1CCC(Cc3ccccc3)CC1)O2` (centres unmarked) [Example 5, 2-[(4-Benzyl-1-piperidinyl)methyl]-2,3-dihydro-2,4,6,7-tetramethyl-5-benzofuranamine] had a negative logarithm of the IC50 (pIC50) of 6.28.

For the compound `Cc1c(C)c2c(c(C)c1N)CC(C)(CN1CCC(OC(c3ccc(F)cc3)c3ccc(F)cc3)CC1)O2` (centres unmarked) [Example 28, 2-[[4-[Bis(4-fluorophenyl)methoxy]-1-piperidinyl]methyl]-2,3-dihydro-2,4,6,7-tetramethyl-5-benzofuranamine oxalate], the pIC50 was 6.66.

Regarding `Cc1c(C)c2c(c(C)c1N)CC(C)(CN1CCC(CCNC(c3ccccc3)c3ccccc3)CC1)O2` (centres unmarked) [Example 41, 1[(5-Amino-2,3-dihydro-2,4,6,7-tetramethylbenzofuran-2-yl)methyl]-N-(diphenylmethyl)-4-piperidineethylamine trihydrochloride], the pIC50 is 6.85.

Take `COc1cccc(CN2CCN(CC3(C)Cc4c(C)c(N)c(C)c(C)c4O3)CC2)c1` (centres unmarked) [Example 30, 2,3-Dihydro-2-[[4-(3-methoxybenzyl)-1-piperazinyl]methyl]-2,4,6,7-tetramethyl-5-benzofuranamine trihydrochloride]: the negative-log IC50 (pIC50) is 6.41.

Compound `Cc1c(C)c2c(c(C)c1N)CC(C)(CN1CCC(CCOC(c3ccccc3)c3ccccc3)CC1)O2` (centres unmarked) [Example 25, 2-[[4-[2-(Diphenylmethoxy)ethyl]-1-piperidinyl]methyl]-2,3-dihydro-2,4,6,7-tetramethyl-5-benzofuranamine oxalate] had a pIC50 of 6.47.

As for `Cc1c(C)c2c(c(C)c1N)CC(C)(CN1CCC(CCCOC(c3ccccc3)c3ccccc3)CC1)O2` (centres unmarked) [Example 26, 2-[[4-[3-(Diphenylmethoxy)propyl]-1-piperidinyl]methyl]-2,3-dihydro-2,4,6,7-tetramethyl-5-benzofuranamine oxalate], the negative logarithm of the IC50 (pIC50) is 6.66. The pIC50 values of the last two compounds are within 0.2 log units of each other.

In the case of `Cc1c(C)c2c(c(C)c1N)CC(C)(CN1CCC(NC(c3ccccc3)c3ccccc3)CC1)O2` (centres unmarked) [Example 40, 1-[(5-Amino-2,3-dihydro-2,4,6,7-tetramethylbenzofuran-2-yl)methyl]-N-(diphenylmethyl)-4-piperidinamine trihydrochloride], the negative-log IC50 (pIC50) was 6.80.

In the case of `Cc1c(C)c2c(c(C)c1N)CC(C)(CN1CCC(CCNCCC(c3ccccc3)c3ccccc3)CC1)O2` (centres unmarked) [Example 42, 1-[(5-Amino-2,3-dihydro-2,4,6,7-tetramethylbenzofuran-2-yl)methyl]-N-(3,3-diphenylpropyl)-4-piperidineethylamine trihydrochloride], the pIC50 was 6.80.

`COc1ccc(CN2CCN(CC3(C)Cc4c(C)c(N)c(C)c(C)c4O3)CC2)cc1` (centres unmarked) [Example 29, 2,3-Dihydro-2-[[4-(4-methoxybenzyl)-1-piperazinyl]methyl]-2,4,6,7-tetramethyl-5-benzofuranamine trihydrochloride] showed a negative-log IC50 (pIC50) of 6.68.

`CCNc1c(C)c(C)c2c(c1C)CC(C)(CN1CCC(c3ccccc3)CC1)O2` (centres unmarked) [Reference Example 8, N-ethyl-2,3-dihydro-2,4,6,7-tetramethyl-2-[(4-phenyl-1-piperidinyl)methyl]-5-benzofuranamine] showed a pIC50 of 6.19.

`Cc1c(C)c2c(c(C)c1N)CC(C)(CN1CCN(Cc3ccc(Cl)cc3)CC1)O2` (centres unmarked) [Example 33, 2-[[4-(4-Chlorobenzyl)-1-piperazinyl]methyl]-2,3-dihydro-2,4,6,7-tetramethyl-5-benzofuranamine trihydrochloride]: the pIC50 is 6.51.

In turn, `Cc1ccc(CN2CCN(CC3(C)Cc4c(C)c(N)c(C)c(C)c4O3)CC2)cc1` (centres unmarked) [Example 34, 2,3-Dihydro-2,4,6,7-tetramethyl-2-[[4-(4-methylbenzyl)-1-piperazinyl]methyl]-5-benzofuranamine trihydrochloride] showed a pIC50 of 6.38.

On to `Cc1c(C)c2c(c(C)c1N)CC(C)(CN1CCN(Cc3ccccc3)CC1)O2` (centres unmarked) [Example 6, 2-[(4-Benzyl-1-piperazinyl)methyl]-2,3-dihydro-2,4,6,7-tetramethyl-5-benzofuranamine trihydrochloride], for which the pIC50 is 6.10.
